Test results published in patent publication US20100056515A1, “BENZIMIDAZOLE COMPOUNDS” (priority 2006, published 2010).

Legend:
human CRF receptor = biological target: T1, human CRF receptor (Homo sapiens, UniProt P34998); assay: Measurement of CRF Binding Inhibitory Rate (receptor binding experiment with 125I-CRF); conditions: human CRF receptor expressing CHO cellular membrane fraction; 50 pM ovine 125I-CRF; 0.05 nM to 10 μM of compound; room temperature 1.5 hr; read-out: IC50 values (CRF binding inhibition)
T1 construct: expressed in transfected cells; host or cells: CHO cells (membrane fraction)
T1 sequence (P34998 24-415): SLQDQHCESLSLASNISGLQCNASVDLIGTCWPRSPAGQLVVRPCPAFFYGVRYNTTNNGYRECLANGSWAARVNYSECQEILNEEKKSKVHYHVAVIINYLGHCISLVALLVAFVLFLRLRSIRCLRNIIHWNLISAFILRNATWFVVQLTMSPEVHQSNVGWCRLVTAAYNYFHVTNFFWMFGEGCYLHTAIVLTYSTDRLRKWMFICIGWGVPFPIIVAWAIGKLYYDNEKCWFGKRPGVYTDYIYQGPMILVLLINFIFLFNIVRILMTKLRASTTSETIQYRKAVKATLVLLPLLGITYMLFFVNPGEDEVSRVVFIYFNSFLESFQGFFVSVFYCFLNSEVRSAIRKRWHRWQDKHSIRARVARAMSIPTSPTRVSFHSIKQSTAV

Question: Which melting point does the source give for CCC(CCO)c1ccc(Cl)c2nc(Oc3c(C)cc(Cl)cc3Cl)n(C)c12 (stereo not shown) [Example 97, 3-[4-Chloro-2-(2,4-dichloro-6-methylphenoxy)-1-methyl-1H-benzimidazol-7-yl]pentan-1-ol] here?
Answer: 165 to 167 °C

Question: And the IC50 (human CRF receptor)?
Answer: < 1000 nM

Question: Which melting point does the source give for CCC(CC)c1ccc(Cl)c2nc(Oc3c(OC)cc(C(F)(F)F)nc3C)n(C)c12 [Example 56, 4-Chloro-7-(1-ethylpropyl)-2-{[4-methoxy-2-methyl-6-(trifluoromethyl)pyridin-3-yl]oxy}-1-methyl-1H-benzimidazole] here?
Answer: 178 to 179 °C

Question: And the IC50 (human CRF receptor)?
Answer: < 1000 nM
